Laboratory results published in patent EP4745135A1 (Gluetacs Therapeutics (Shanghai) Co., Ltd., priority 2023, dated 2025).

How the values were obtained:
[1] = test system: GSPT1; assay: Western blot, degradation of substrate protein in hPBMCs; format: cell-based, Human
[2] = target: T1, human Cereblon WT GST-tagged protein (Homo sapiens, UniProt Q96SW2); assay: CRBN-binding affinity, HTRF (CEREBLON BINDING kit); settings: for inhibition at 0.5 µM: read-out: Inhibition Rate at 0.5 µM (%); for inhibition at 2 µM: read-out: Inhibition Rate at 2 µM (%)
T1 construct: purchased CISBIO 64BDCRBNPEH
T1 sequence (Q96SW2 whole entry): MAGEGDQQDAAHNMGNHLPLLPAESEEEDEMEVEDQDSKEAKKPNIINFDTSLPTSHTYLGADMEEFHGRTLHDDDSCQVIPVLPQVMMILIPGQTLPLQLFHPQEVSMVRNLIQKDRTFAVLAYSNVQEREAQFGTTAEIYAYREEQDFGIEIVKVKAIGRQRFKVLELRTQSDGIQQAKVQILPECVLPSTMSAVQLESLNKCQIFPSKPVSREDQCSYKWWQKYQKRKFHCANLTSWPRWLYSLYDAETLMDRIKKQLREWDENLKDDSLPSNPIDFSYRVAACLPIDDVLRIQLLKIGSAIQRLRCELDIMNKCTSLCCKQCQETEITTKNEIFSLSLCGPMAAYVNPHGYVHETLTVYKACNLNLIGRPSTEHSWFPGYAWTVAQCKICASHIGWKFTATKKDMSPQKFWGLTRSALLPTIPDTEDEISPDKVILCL

[3] = target: T2, WEE1 (Homo sapiens, UniProt P30291+Q96SW2); assay: Western blot, degradation of substrate protein in hPBMCs; format: cell-based
T2 construct: effects of the compounds of the present disclosure on the expression of target proteins in cells; endogenous in cells; host or cells: human PBMCs (Milecell Biotechnologies)
T2 sequence (P30291 whole entry): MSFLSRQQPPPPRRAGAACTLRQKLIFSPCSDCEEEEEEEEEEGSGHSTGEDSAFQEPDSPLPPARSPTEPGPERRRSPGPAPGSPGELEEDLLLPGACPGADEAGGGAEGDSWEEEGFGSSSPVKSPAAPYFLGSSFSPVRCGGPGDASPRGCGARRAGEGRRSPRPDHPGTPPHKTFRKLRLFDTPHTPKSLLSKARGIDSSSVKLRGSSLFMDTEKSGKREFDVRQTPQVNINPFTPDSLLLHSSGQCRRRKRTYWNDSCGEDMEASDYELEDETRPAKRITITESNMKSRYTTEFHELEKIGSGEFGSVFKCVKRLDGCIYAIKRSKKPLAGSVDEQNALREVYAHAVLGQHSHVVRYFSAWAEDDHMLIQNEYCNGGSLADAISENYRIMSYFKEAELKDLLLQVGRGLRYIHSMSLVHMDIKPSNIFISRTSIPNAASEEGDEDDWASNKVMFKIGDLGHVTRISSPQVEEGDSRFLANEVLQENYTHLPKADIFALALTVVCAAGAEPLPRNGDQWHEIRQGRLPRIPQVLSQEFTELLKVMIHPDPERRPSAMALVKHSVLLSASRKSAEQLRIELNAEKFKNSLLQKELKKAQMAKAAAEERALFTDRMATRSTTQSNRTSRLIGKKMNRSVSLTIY
T2 sequence (Q96SW2 whole entry): as the sequence (Q96SW2 whole entry) above
T2 sequence (Q16531 whole entry partner): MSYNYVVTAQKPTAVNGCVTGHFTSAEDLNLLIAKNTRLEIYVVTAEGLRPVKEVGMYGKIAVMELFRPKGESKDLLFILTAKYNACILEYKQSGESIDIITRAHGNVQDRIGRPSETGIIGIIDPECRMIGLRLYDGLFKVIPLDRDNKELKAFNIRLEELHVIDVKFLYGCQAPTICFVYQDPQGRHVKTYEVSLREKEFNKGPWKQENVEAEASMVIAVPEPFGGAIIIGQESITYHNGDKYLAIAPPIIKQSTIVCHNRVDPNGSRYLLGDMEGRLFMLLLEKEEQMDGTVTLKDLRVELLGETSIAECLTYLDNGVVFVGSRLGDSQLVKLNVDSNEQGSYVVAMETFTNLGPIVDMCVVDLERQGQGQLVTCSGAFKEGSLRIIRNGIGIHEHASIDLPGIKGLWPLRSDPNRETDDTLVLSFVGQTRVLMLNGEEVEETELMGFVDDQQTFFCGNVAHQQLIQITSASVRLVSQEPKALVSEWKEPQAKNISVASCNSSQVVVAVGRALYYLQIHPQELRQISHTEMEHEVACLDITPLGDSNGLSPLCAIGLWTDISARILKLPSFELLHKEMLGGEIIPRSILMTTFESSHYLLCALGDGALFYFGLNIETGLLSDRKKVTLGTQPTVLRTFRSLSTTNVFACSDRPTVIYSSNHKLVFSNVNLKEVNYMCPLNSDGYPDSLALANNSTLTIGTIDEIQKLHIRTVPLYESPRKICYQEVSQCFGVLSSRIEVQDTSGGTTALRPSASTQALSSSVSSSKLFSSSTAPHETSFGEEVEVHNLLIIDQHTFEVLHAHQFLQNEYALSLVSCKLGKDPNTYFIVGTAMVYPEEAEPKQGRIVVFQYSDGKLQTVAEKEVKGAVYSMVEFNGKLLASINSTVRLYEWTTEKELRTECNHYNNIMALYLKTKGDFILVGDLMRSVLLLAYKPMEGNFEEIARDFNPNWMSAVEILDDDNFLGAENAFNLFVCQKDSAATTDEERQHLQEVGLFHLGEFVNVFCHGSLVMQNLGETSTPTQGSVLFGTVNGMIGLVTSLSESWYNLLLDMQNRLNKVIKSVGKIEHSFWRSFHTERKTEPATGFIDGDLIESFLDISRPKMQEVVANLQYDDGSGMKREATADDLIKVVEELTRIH

[4] = target: T3, CK1α (Homo sapiens, UniProt P48729+Q96SW2); assay: as above; format: cell-based
T3 construct: effects of the compounds of the present disclosure on the expression of target proteins in cells; endogenous in cells; host or cells: human PBMCs (Milecell Biotechnologies)
T3 sequence (P48729 whole entry): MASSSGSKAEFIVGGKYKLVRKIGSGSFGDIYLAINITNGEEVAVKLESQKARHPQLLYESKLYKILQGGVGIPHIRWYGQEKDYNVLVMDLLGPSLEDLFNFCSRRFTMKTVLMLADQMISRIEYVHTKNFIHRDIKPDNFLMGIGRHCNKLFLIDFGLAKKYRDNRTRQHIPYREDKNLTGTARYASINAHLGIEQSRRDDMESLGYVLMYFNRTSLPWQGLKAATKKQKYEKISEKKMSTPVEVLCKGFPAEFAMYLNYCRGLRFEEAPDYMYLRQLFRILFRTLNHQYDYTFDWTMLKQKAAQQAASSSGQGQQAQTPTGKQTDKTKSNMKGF
T3 sequence (Q96SW2 whole entry): as the sequence (Q96SW2 whole entry) above
T3 sequence (Q16531 whole entry partner): as the sequence (Q16531 whole entry partner) above

[5] = target: T4, IKZF1 (Homo sapiens, UniProt Q13422+Q96SW2); assay: as above; format: cell-based
T4 construct: effects of the compounds of the present disclosure on the expression of target proteins in cells; endogenous in cells; host or cells: human PBMCs (Milecell Biotechnologies)
T4 sequence (Q13422 whole entry): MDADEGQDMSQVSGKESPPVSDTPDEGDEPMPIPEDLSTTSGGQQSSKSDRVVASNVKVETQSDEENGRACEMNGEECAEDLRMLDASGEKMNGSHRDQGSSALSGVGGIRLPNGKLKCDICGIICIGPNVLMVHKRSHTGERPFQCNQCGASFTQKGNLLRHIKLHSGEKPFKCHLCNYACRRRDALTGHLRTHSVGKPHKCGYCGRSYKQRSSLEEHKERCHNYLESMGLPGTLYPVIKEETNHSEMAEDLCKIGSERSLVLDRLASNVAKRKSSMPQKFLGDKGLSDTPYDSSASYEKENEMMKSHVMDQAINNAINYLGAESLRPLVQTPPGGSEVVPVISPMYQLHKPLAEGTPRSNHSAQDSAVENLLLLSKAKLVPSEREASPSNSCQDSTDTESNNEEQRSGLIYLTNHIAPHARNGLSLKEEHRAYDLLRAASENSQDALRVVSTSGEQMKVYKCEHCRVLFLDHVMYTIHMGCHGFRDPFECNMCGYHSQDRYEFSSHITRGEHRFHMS
T4 sequence (Q96SW2 whole entry): as the sequence (Q96SW2 whole entry) above
T4 sequence (Q16531 whole entry partner): as the sequence (Q16531 whole entry partner) above

[6] = target: T5, IKZF3 (Homo sapiens, UniProt Q96SW2+Q9UKT9); assay: as above; format: cell-based
T5 construct: effects of the compounds of the present disclosure on the expression of target proteins in cells; endogenous in cells; host or cells: human PBMCs (Milecell Biotechnologies)
T5 sequence (Q9UKT9 whole entry): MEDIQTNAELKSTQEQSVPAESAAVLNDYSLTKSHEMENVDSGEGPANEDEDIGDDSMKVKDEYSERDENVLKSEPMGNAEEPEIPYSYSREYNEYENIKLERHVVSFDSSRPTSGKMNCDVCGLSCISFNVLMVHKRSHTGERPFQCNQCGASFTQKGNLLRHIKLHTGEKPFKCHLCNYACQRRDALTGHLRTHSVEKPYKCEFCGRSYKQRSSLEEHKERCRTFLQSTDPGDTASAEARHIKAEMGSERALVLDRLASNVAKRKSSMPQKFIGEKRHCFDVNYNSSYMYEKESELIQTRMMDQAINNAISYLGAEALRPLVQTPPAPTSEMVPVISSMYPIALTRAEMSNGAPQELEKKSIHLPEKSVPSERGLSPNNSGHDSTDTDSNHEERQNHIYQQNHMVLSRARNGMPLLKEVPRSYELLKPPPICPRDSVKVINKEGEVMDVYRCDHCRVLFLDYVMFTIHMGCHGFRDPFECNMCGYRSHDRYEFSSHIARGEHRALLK
T5 sequence (Q96SW2 whole entry): as the sequence (Q96SW2 whole entry) above
T5 sequence (Q16531 whole entry partner): as the sequence (Q16531 whole entry partner) above

[7] = target: T6, IKZF2 (Homo sapiens, UniProt Q96SW2+Q9UKS7); assay: as above; format: cell-based
T6 construct: effects of the compounds of the present disclosure on the expression of target proteins in cells; endogenous in cells; host or cells: human PBMCs (Milecell Biotechnologies)
T6 sequence (Q9UKS7 whole entry): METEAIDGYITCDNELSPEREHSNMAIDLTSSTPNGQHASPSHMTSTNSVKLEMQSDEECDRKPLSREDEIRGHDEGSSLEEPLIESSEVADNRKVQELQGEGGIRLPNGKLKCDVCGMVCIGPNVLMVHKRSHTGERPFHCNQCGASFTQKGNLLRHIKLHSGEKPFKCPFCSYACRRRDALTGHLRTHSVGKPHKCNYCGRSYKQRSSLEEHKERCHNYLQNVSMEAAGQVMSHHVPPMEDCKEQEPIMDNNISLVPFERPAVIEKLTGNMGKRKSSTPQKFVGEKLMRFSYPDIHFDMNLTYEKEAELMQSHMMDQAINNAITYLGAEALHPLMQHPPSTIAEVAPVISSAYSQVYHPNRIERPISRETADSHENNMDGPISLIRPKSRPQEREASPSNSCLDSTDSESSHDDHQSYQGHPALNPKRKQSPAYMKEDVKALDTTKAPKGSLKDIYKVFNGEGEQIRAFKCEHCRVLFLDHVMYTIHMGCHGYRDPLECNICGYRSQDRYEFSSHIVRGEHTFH
T6 sequence (Q96SW2 whole entry): as the sequence (Q96SW2 whole entry) above
T6 sequence (Q16531 whole entry partner): as the sequence (Q16531 whole entry partner) above

[8] = 24 hours treatment, compounds at 50 nM and 500 nM (concentration behind the class not stated)
[9] = Western blot, 24 hours of compound treatment, compounds tested at 50 nM and 500 nM (concentration for the table not stated)

Row | SMILES | GSPT1 substrate protein remaining % [1, 8] | inhibition at 0.5 µM [2] [%] | inhibition at 2 µM [2] [%] | Wee1 substrate protein remaining % [3, 8] | CK1α substrate protein remaining % [4, 8] | IKZF 1 substrate protein remaining % [5, 8] | IKZF3 substrate protein remaining % [6, 8] | IKZF2 substrate protein remaining % [7, 8] | GSPT1 substrate protein remaining % [1, 9] | Wee1 substrate protein remaining % [3, 9] | CK1α substrate protein remaining % [4, 9] | IKZF 1 substrate protein remaining % [5, 9] | IKZF3 substrate protein remaining % [6, 9] | IKZF2 substrate protein remaining % [7, 9]
1 | O=C1CCC(N2Cc3cc(CN4CCN(CC5=C(c6ccc(F)cc6)CCCC5)CC4)ccc3C2=S)C(=O)N1 (centres unmarked) [GT-08164, 3-(5-((4-((4'-fluoro-3,4,5,6-tetrahydro-[1,1'-biphenyl]-2-yl)methyl)piperazin-1-yl)methyl)-1-thioxoisoindolin-2-yl)piperidine-2,6-dione] | A (0% ≤ substrate protein remaining % ≤ 80%) | 40 to 53 | 80 to 100 | A (0% ≤ substrate protein remaining % ≤ 80%) | B (80%< substrate protein remaining %≤ 100%) | A (0% ≤ substrate protein remaining % ≤ 80%) | A (0% ≤ substrate protein remaining % ≤ 80%) | A (0% ≤ substrate protein remaining % ≤ 80%) | – | – | – | – | – | –
2 | CC1(C)CC(c2ccc(Cl)cc2)=C(CN2CCN(Cc3ccc4c(c3)CN(C3CCC(=O)NC3=O)C4=S)CC2)CO1 (centres unmarked) [GT-08167, 3-(5-((4-((4-(4-chlorophenyl)-6,6-dimethyl-5,6-dihydro-2H-pyran-3-yl)methyl)piperazin-1-yl)methyl)-1-thioxoisoindolin-2-yl)piperidine-2,6-dione] | A (0% ≤ substrate protein remaining % ≤ 80%) | 40 to 53 | 80 to 100 | A (0% ≤ substrate protein remaining % ≤ 80%) | B (80%< substrate protein remaining %≤ 100%) | B (80%< substrate protein remaining %≤ 100%) | A (0% ≤ substrate protein remaining % ≤ 80%) | A (0% ≤ substrate protein remaining % ≤ 80%) | – | – | – | – | – | –
3 | O=C1CCC(N2Cc3cc(CN4CCN(c5cccs5)CC4)ccc3C2=S)C(=O)N1 (centres unmarked) [GT-08168, 3-(5-((4-(thiophen-2-yl)piperazin-1-yl)methyl)-1-thioxoisoindolin-2-yl)piperidine-2,6-dione] | A (0% ≤ substrate protein remaining % ≤ 80%) | 80 to 100 | 80 to 100 | A (0% ≤ substrate protein remaining % ≤ 80%) | B (80%< substrate protein remaining %≤ 100%) | B (80%< substrate protein remaining %≤ 100%) | B (80%< substrate protein remaining %≤ 100%) | B (80%< substrate protein remaining %≤ 100%) | – | – | – | – | – | –
4 | O=C1CCC(N2Cc3cc(CN4CCN(c5ccsc5)CC4)ccc3C2=S)C(=O)N1 (centres unmarked) [GT-08169, 3-(5-((4-(thiophen-3-yl)piperazin-1-yl)methyl)-1-thioxoisoindolin-2-yl)piperidine-2,6-dione] | A (0% ≤ substrate protein remaining % ≤ 80%) | 80 to 100 | 80 to 100 | A (0% ≤ substrate protein remaining % ≤ 80%) | B (80%< substrate protein remaining %≤ 100%) | B (80%< substrate protein remaining %≤ 100%) | B (80%< substrate protein remaining %≤ 100%) | B (80%< substrate protein remaining %≤ 100%) | – | – | – | – | – | –
5 | O=C1CCC(N2Cc3c(CN4CCN(C(c5ccccc5)c5ccccc5)CC4)cccc3C2=S)C(=O)N1 (centres unmarked) [GT-08191, 3-(4-((4-benzhydrylpiperazin-1-yl)methyl)-1-thioxoisoindolin-2-yl)piperidine-2,6-dione] | – | 30 to 40 | 60 to 80 | – | – | – | – | – | A (0% ≤ substrate protein remaining % ≤ 80%) | B (80%< substrate protein remaining %≤ 100%) | B (80%< substrate protein remaining %≤ 100%) | B (80%< substrate protein remaining %≤ 100%) | B (80%< substrate protein remaining %≤ 100%) | B (80%< substrate protein remaining %≤ 100%)
6 | O=C1CCC(N2Cc3c(CN4CCN(C(c5ccc(Cl)cc5)c5ccc(Cl)cc5)CC4)cccc3C2=S)C(=O)N1 (centres unmarked) [GT-08203, 3-(4-((4-(bis(4-chlorophenyl)methyl)piperazin-1-yl)methyl)-1-thioxoisoindolin-2-yl)piperidine-2,6-dione] | – | 30 to 40 | 53 to 60 | – | – | – | – | – | A (0% ≤ substrate protein remaining % ≤ 80%) | A (0% ≤ substrate protein remaining % ≤ 80%) | B (80%< substrate protein remaining %≤ 100%) | B (80%< substrate protein remaining %≤ 100%) | A (0% ≤ substrate protein remaining % ≤ 80%) | A (0% ≤ substrate protein remaining % ≤ 80%)
7 | O=C1CCC(N2Cc3c(CN4C[C@H]5C[C@@H]4CN5C(c4ccccc4)c4ccccc4)cccc3C2=S)C(=O)N1 (stereo partly drawn) [GT-08208, 3-(4-(((1R,4R)-5-benzhydryl-2,5-diazabicyclo[2.2.1]heptan-2-yl)methyl)-1-thioxoisoindolin-2-yl)piperidine-2,6-dione] | – | 40 to 53 | 80 to 100 | – | – | – | – | – | A (0% ≤ substrate protein remaining % ≤ 80%) | A (0% ≤ substrate protein remaining % ≤ 80%) | B (80%< substrate protein remaining %≤ 100%) | B (80%< substrate protein remaining %≤ 100%) | B (80%< substrate protein remaining %≤ 100%) | A (0% ≤ substrate protein remaining % ≤ 80%)
8 | O=C1CCC(N2Cc3c(CN4CCC(N(c5ccccc5)c5ccccc5)CC4)cccc3C2=S)C(=O)N1 (centres unmarked) [GT-08209, 3-(4-((4-(diphenylamino)piperidin-1-yl)methyl)-1-thioxoisoindolin-2-yl)piperidine-2,6-dione] | – | 60 to 80 | 80 to 100 | – | – | – | – | – | A (0% ≤ substrate protein remaining % ≤ 80%) | A (0% ≤ substrate protein remaining % ≤ 80%) | B (80%< substrate protein remaining %≤ 100%) | B (80%< substrate protein remaining %≤ 100%) | B (80%< substrate protein remaining %≤ 100%) | B (80%< substrate protein remaining %≤ 100%)
9 | CC1(C)CN(Cc2cccc3c2CN(C2CCC(=O)NC2=O)C3=S)CCN1C(c1ccccc1)c1ccccc1 (centres unmarked) [GT-08231, 3-(4-((4-benzhydryl-3,3-dimethylpiperazin-1-yl)methyl)-1-thioxoisoindolin-2-yl)piperidine-2,6-dione] | – | 53 to 60 | 60 to 80 | – | – | – | – | – | A (0% ≤ substrate protein remaining % ≤ 80%) | A (0% ≤ substrate protein remaining % ≤ 80%) | B (80%< substrate protein remaining %≤ 100%) | B (80%< substrate protein remaining %≤ 100%) | B (80%< substrate protein remaining %≤ 100%) | A (0% ≤ substrate protein remaining % ≤ 80%)
10 | C[C@@H]1CN(C(c2ccccc2)c2ccccc2)CCN1Cc1cccc2c1CN(C1CCC(=O)NC1=O)C2=S (stereo partly drawn) [GT-08232, 3-(4-(((R)-4-benzhydryl-2-methylpiperazin-1-yl)methyl)-1-thioxoisoindolin-2-yl)piperidine-2,6-dione] | – | 40 to 53 | 80 to 100 | – | – | – | – | – | A (0% ≤ substrate protein remaining % ≤ 80%) | A (0% ≤ substrate protein remaining % ≤ 80%) | B (80%< substrate protein remaining %≤ 100%) | B (80%< substrate protein remaining %≤ 100%) | B (80%< substrate protein remaining %≤ 100%) | A (0% ≤ substrate protein remaining % ≤ 80%)
